# How the values were obtained:
# [1] = system: α2 (non-selective); assay: α2 (non-selective) binding assay; parameters: species or system rat; details: 1.0E−05 M
# [2] = target: T1, D2S(h) (Homo sapiens, UniProt P14416); assay: biochemical; format: binding; details: 1.0E−05 M; read-out: % Inhibition of Control Specific Binding
# T1 construct: expressed in transfected cells; host or cells: CHO cells
# [3] = target: T2, MAO-B(h) (Homo sapiens, UniProt P27338); format: biochemical; details: 1.0E−05 M
# T2 construct: human platelets; from tissue; host or cells: human platelets
# T2 sequence (P27338 whole entry): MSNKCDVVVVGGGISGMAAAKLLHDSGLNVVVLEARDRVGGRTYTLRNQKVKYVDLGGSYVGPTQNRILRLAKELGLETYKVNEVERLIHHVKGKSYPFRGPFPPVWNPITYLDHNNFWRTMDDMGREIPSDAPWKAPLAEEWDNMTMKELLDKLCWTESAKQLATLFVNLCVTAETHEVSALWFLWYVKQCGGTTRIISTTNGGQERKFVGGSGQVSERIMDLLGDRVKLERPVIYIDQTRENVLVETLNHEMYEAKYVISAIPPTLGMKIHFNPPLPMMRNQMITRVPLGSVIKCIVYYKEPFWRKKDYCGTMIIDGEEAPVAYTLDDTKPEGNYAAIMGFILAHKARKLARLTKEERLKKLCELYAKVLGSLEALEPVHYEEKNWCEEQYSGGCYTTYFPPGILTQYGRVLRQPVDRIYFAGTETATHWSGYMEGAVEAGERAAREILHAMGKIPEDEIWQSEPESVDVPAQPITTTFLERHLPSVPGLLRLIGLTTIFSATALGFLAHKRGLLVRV
# [4] = target: T3, NK3(h) (Homo sapiens, UniProt P29371); assay: NK3(h) binding assay; details: read-out: % Inhibition of Control Specific Binding
# T3 construct: expressed in transfected cells; host or cells: CHO cells
# T3 sequence (P29371 whole entry): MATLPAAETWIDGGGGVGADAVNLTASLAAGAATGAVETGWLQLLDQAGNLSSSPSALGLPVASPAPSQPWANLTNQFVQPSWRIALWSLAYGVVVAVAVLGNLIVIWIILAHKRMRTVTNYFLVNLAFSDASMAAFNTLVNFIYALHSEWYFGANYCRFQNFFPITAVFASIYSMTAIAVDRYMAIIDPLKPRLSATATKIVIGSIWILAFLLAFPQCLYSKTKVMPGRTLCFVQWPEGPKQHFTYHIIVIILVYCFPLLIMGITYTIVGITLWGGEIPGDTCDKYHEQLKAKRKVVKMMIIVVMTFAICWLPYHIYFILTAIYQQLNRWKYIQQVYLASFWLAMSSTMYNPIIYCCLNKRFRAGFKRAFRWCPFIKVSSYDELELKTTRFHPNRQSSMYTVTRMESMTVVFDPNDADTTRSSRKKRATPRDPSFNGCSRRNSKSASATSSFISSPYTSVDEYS
# [5] = system: AMPA; assay: AMPA binding assay; parameters: species or system rat; details: 1.0E−05 M
# [6] = system: Y (non-selective); assay: Y (non-selective) binding assay; parameters: species or system rat; details: 1.0E−05 M
# [7] = target: D4.4(h) (Homo sapiens, UniProt P21917); assay: biochemical; details: 1.0E−05 M; read-out: % Inhibition of Control Specific Binding
# Sequence of D4.4(h) (P21917 whole entry): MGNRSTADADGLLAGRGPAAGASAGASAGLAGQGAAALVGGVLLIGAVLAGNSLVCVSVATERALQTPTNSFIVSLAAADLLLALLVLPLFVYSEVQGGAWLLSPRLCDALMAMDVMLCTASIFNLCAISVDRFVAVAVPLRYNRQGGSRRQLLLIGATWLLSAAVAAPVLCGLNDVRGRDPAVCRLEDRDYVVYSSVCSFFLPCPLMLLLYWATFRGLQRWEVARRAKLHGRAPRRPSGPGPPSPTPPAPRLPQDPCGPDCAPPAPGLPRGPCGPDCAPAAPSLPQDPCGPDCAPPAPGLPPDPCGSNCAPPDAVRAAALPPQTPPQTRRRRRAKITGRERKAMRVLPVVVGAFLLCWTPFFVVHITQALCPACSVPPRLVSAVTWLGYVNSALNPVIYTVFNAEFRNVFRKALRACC
# [8] = system: M (non-selective); assay: M (non-selective) binding assay; parameters: species or system rat; details: 1.0E−05 M
# [9] = target: CYP2D6 (Homo sapiens, UniProt P10635); assay: ADME-Tox: In vitro Metabolism (Cytochrome P450, fluorogenic substrates BFC, CEC, MFC); parameters: inhibition: dose or concentration left out as unconfirmed; details: human
# Sequence of CYP2D6 (P10635 whole entry): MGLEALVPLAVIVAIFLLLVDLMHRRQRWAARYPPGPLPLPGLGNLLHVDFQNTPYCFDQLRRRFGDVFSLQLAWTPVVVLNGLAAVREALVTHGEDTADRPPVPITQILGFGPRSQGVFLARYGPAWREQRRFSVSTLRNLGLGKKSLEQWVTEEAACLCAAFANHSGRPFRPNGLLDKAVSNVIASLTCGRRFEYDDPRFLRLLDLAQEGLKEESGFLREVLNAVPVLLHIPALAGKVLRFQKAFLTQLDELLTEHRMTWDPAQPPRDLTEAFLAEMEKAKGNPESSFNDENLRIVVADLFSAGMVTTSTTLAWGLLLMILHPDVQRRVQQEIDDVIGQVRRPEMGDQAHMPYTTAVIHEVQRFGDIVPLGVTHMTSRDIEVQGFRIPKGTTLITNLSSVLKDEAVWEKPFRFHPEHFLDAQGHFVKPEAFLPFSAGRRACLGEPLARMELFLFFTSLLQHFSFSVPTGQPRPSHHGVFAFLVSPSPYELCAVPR
# [10] = target: CYP2C19 (Homo sapiens, UniProt P33261); assay: as above; parameters: inhibition: dose or concentration left out as unconfirmed; details: human
# Sequence of CYP2C19 (P33261 whole entry): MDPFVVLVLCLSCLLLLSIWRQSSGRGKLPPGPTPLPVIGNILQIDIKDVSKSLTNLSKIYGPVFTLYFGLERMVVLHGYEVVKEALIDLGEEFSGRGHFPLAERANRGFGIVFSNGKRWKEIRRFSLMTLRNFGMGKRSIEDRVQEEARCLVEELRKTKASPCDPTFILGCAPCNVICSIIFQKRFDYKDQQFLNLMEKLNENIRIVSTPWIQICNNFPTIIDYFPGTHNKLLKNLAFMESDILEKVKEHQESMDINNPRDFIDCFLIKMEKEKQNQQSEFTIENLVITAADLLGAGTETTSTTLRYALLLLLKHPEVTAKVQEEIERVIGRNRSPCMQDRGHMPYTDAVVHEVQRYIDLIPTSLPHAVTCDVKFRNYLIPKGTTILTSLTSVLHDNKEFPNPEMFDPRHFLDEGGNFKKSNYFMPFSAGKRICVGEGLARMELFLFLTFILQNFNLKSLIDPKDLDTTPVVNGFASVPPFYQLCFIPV
# [11] = target: CYP3A4 (Homo sapiens, UniProt P08684); assay: as above; parameters: inhibition: dose or concentration left out as unconfirmed; details: human
# Sequence of CYP3A4 (P08684 whole entry): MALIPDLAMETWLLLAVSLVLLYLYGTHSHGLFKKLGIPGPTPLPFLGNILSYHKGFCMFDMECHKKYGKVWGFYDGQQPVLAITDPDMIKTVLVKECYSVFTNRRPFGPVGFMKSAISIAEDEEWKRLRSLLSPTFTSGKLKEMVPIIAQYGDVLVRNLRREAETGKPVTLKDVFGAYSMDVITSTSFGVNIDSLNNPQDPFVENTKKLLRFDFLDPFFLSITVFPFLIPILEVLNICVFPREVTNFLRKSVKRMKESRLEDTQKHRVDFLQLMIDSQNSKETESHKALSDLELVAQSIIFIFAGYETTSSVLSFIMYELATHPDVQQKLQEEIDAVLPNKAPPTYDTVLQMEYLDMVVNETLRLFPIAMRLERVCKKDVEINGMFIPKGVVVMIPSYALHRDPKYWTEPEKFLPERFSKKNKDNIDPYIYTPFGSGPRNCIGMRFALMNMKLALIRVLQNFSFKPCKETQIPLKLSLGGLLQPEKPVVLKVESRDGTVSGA
# [12] = target: CYP1A2 (Homo sapiens, UniProt P05177); assay: as above; parameters: inhibition: dose or concentration left out as unconfirmed; details: human
# Sequence of CYP1A2 (P05177 whole entry): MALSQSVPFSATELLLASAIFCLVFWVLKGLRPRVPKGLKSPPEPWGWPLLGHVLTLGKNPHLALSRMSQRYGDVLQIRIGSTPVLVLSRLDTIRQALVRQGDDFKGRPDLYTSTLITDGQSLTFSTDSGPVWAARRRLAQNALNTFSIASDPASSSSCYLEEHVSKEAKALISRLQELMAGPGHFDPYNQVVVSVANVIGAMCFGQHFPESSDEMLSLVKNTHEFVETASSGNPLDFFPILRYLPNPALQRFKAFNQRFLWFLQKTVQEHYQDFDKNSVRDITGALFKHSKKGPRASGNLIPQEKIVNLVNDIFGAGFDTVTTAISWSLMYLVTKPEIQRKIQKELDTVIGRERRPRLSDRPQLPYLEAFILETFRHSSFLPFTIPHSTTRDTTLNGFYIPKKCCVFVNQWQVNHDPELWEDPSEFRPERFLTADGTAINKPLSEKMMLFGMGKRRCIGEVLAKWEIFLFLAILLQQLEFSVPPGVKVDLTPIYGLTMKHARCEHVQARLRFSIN
# [13] = system: BZD (central); assay: BZD (central) binding assay; parameters: species or system rat; details: 1.0E−05 M
# T1 sequence (P14416 1-414 isoform P14416-2): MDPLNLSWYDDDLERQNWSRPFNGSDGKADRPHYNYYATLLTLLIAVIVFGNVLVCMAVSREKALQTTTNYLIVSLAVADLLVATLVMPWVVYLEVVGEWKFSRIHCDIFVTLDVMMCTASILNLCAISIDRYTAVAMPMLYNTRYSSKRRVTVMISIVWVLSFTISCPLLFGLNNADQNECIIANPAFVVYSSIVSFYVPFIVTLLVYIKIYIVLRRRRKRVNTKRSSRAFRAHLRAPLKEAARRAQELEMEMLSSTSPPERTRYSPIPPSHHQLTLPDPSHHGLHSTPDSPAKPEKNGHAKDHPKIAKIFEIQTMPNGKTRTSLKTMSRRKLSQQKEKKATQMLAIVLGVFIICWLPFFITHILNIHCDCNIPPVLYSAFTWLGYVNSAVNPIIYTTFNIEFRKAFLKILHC
structure (smiles),measurement,setting,value
"N#Cc1ccc2c(ccn2CCCCCB(O)O)c1 [Example 20, 5-(5-cyano-1H-indol-1-yl)pentylboronic acid]",% Inhibition of Control Specific Binding,[1],7%
same,inhibition at 10 µM,[2],23%
same,% Inhibition of Control Values,[3],−8%
same,inhibition at 10 µM,[4],3%
same,% Inhibition of Control Specific Binding,[5],−3%
same,% Inhibition of Control Specific Binding,[6],14%
same,inhibition at 10 µM,[7],1%
same,% Inhibition of Control Specific Binding,[8],−4%
same,inhibition,[9],42%
same,inhibition,[10],52%
same,inhibition,[11],97%
same,inhibition,[12],40%
same,% Inhibition of Control Specific Binding,[13],18%

# From patent US20090264384A1, “INDOLE, BENZIMIDAZOLE, AND BENZOLACTAM BORONIC ACID COMPOUNDS, ANALOGS THEREOF AND METHODS OF USE THEREOF” (Nuada, Inc., priority 2004, published 2009)
